# In the NIST ThermoML archive (doi:10.1016/j.jct.2008.12.010):
# ± gives the expanded uncertainty stated by the source.
# Assay: xn = mol fraction of the nth substance listed
# Conditions: for speed of sound / mass density: Liquid; for speed of sound: Linear variable-path acoustic interferometer; for mass density: Vibrating tube method; for surface tension liquid-gas: Drop volume
smiles,measurement,setting,value
"Cc1ccc(C)cc1 [1,4-dimethylbenzene] + CCCCCCCCCC",speed of sound,"288.15 K, x1 = 0.1092",1276.2 ± 1.9 m/s
same,speed of sound,"288.15 K, x1 = 0.1984",1278.7 ± 1.9 m/s
same,speed of sound,"288.15 K, x1 = 0.3105",1282.7 ± 1.9 m/s
same,speed of sound,"288.15 K, x1 = 0.3427",1284.1 ± 1.9 m/s
same,speed of sound,"288.15 K, x1 = 0.4919",1292.3 ± 1.9 m/s
same,speed of sound,"288.15 K, x1 = 0.5438",1295.8 ± 1.9 m/s
same,speed of sound,"288.15 K, x1 = 0.5995",1300.1 ± 1.9 m/s
same,speed of sound,"288.15 K, x1 = 0.7293",1312.2 ± 2 m/s
same,speed of sound,"288.15 K, x1 = 0.7829",1318.2 ± 2 m/s
same,speed of sound,"288.15 K, x1 = 0.8993",1333.7 ± 2 m/s
same,speed of sound,"288.15 K, x1 = 0.9499",1341.9 ± 2 m/s
same,mass density,"288.15 K, x1 = 0.1092",742.78 ± 0.24 kg/m3
same,mass density,"288.15 K, x1 = 0.1984",750.98 ± 0.24 kg/m3
same,mass density,"288.15 K, x1 = 0.3105",762.21 ± 0.24 kg/m3
same,mass density,"288.15 K, x1 = 0.3427",765.62 ± 0.24 kg/m3
same,mass density,"288.15 K, x1 = 0.4919",782.82 ± 0.24 kg/m3
same,mass density,"288.15 K, x1 = 0.5438",789.38 ± 0.24 kg/m3
same,mass density,"288.15 K, x1 = 0.5995",796.78 ± 0.24 kg/m3
same,mass density,"288.15 K, x1 = 0.7293",815.71 ± 0.24 kg/m3
same,mass density,"288.15 K, x1 = 0.7829",824.32 ± 0.24 kg/m3
same,mass density,"288.15 K, x1 = 0.8993",844.93 ± 0.24 kg/m3
same,mass density,"288.15 K, x1 = 0.9499",854.78 ± 0.24 kg/m3
same,speed of sound,"293.15 K, x1 = 0.1092",1256.7 ± 1.9 m/s
same,speed of sound,"293.15 K, x1 = 0.1984",1259 ± 1.9 m/s
same,speed of sound,"293.15 K, x1 = 0.3427",1264.3 ± 1.9 m/s
same,speed of sound,"293.15 K, x1 = 0.4919",1272.3 ± 1.9 m/s
same,speed of sound,"293.15 K, x1 = 0.5438",1275.7 ± 1.9 m/s
same,speed of sound,"293.15 K, x1 = 0.5995",1279.9 ± 1.9 m/s
same,speed of sound,"293.15 K, x1 = 0.7293",1291.8 ± 1.9 m/s
same,speed of sound,"293.15 K, x1 = 0.7829",1297.8 ± 1.9 m/s
same,speed of sound,"293.15 K, x1 = 0.8993",1312.9 ± 2 m/s
same,speed of sound,"293.15 K, x1 = 0.9499",1320.9 ± 2 m/s
same,mass density,"293.15 K, x1 = 0.1092",739.03 ± 0.24 kg/m3
same,mass density,"293.15 K, x1 = 0.1984",747.15 ± 0.24 kg/m3
same,mass density,"293.15 K, x1 = 0.3427",761.75 ± 0.24 kg/m3
same,mass density,"293.15 K, x1 = 0.4919",778.88 ± 0.24 kg/m3
same,mass density,"293.15 K, x1 = 0.5438",785.41 ± 0.24 kg/m3
same,mass density,"293.15 K, x1 = 0.5995",792.78 ± 0.24 kg/m3
same,mass density,"293.15 K, x1 = 0.7293",811.62 ± 0.24 kg/m3
same,mass density,"293.15 K, x1 = 0.7829",820.21 ± 0.24 kg/m3
same,mass density,"293.15 K, x1 = 0.8993",840.73 ± 0.24 kg/m3
same,mass density,"293.15 K, x1 = 0.9499",850.54 ± 0.24 kg/m3
same,speed of sound,"293.18 K, x1 = 0.3105",1262.9 ± 1.9 m/s
same,mass density,"293.18 K, x1 = 0.3105",758.36 ± 0.24 kg/m3
same,surface tension liquid-gas,"298.15 K, x1 = 0.09726",23.21 ± 0.26 mN/m
same,surface tension liquid-gas,"298.15 K, x1 = 0.2",23.4 ± 0.27 mN/m
same,surface tension liquid-gas,"298.15 K, x1 = 0.2959",23.61 ± 0.27 mN/m
same,surface tension liquid-gas,"298.15 K, x1 = 0.4047",23.89 ± 0.27 mN/m
same,surface tension liquid-gas,"298.15 K, x1 = 0.4998",24.23 ± 0.27 mN/m
same,surface tension liquid-gas,"298.15 K, x1 = 0.5374",24.37 ± 0.27 mN/m
same,surface tension liquid-gas,"298.15 K, x1 = 0.6024",24.66 ± 0.27 mN/m
same,surface tension liquid-gas,"298.15 K, x1 = 0.6962",25.15 ± 0.27 mN/m
same,surface tension liquid-gas,"298.15 K, x1 = 0.8025",25.73 ± 0.27 mN/m
same,surface tension liquid-gas,"298.15 K, x1 = 0.8914",26.33 ± 0.28 mN/m
same,surface tension liquid-gas,"298.15 K, x1 = 0.9503",26.79 ± 0.28 mN/m
same,speed of sound,"298.15 K, x1 = 0.1092",1236.5 ± 1.9 m/s
same,speed of sound,"298.15 K, x1 = 0.1984",1238.7 ± 1.9 m/s
same,speed of sound,"298.15 K, x1 = 0.3105",1242.7 ± 1.9 m/s
same,speed of sound,"298.15 K, x1 = 0.3427",1244 ± 1.9 m/s
same,speed of sound,"298.15 K, x1 = 0.4919",1251.8 ± 1.9 m/s
same,speed of sound,"298.15 K, x1 = 0.5438",1255.3 ± 1.9 m/s
same,speed of sound,"298.15 K, x1 = 0.5995",1259.3 ± 1.9 m/s
same,speed of sound,"298.15 K, x1 = 0.7293",1271.1 ± 1.9 m/s
same,speed of sound,"298.15 K, x1 = 0.7829",1276.9 ± 1.9 m/s
same,speed of sound,"298.15 K, x1 = 0.8993",1291.9 ± 1.9 m/s
same,speed of sound,"298.15 K, x1 = 0.9499",1299.8 ± 1.9 m/s
same,mass density,"298.15 K, x1 = 0.1092",735.23 ± 0.24 kg/m3
same,mass density,"298.15 K, x1 = 0.1984",743.31 ± 0.24 kg/m3
same,mass density,"298.15 K, x1 = 0.3105",754.46 ± 0.24 kg/m3
same,mass density,"298.15 K, x1 = 0.3427",757.83 ± 0.24 kg/m3
same,mass density,"298.15 K, x1 = 0.4919",774.88 ± 0.24 kg/m3
same,mass density,"298.15 K, x1 = 0.5438",781.38 ± 0.24 kg/m3
same,mass density,"298.15 K, x1 = 0.5995",788.72 ± 0.24 kg/m3
same,mass density,"298.15 K, x1 = 0.7293",807.48 ± 0.24 kg/m3
same,mass density,"298.15 K, x1 = 0.7829",816.03 ± 0.24 kg/m3
same,mass density,"298.15 K, x1 = 0.8993",836.47 ± 0.24 kg/m3
same,mass density,"298.15 K, x1 = 0.9499",846.25 ± 0.24 kg/m3
same,speed of sound,"303.15 K, x1 = 0.1092",1216.6 ± 1.9 m/s
same,speed of sound,"303.15 K, x1 = 0.1984",1218.8 ± 1.9 m/s
same,speed of sound,"303.15 K, x1 = 0.3105",1222.5 ± 1.9 m/s
same,speed of sound,"303.15 K, x1 = 0.3427",1223.9 ± 1.9 m/s
same,speed of sound,"303.15 K, x1 = 0.4919",1231.6 ± 1.9 m/s
same,speed of sound,"303.15 K, x1 = 0.5438",1235 ± 1.9 m/s
same,speed of sound,"303.15 K, x1 = 0.5995",1239 ± 1.9 m/s
same,speed of sound,"303.15 K, x1 = 0.7293",1250.6 ± 1.9 m/s
same,speed of sound,"303.15 K, x1 = 0.7829",1256.3 ± 1.9 m/s
same,speed of sound,"303.15 K, x1 = 0.8993",1271.3 ± 1.9 m/s
same,speed of sound,"303.15 K, x1 = 0.9499",1278.9 ± 1.9 m/s
same,mass density,"303.15 K, x1 = 0.1092",731.39 ± 0.24 kg/m3
same,mass density,"303.15 K, x1 = 0.1984",739.42 ± 0.24 kg/m3
same,mass density,"303.15 K, x1 = 0.3105",750.53 ± 0.24 kg/m3
same,mass density,"303.15 K, x1 = 0.3427",753.87 ± 0.24 kg/m3
same,mass density,"303.15 K, x1 = 0.4919",770.85 ± 0.24 kg/m3
same,mass density,"303.15 K, x1 = 0.5438",777.33 ± 0.24 kg/m3
same,mass density,"303.15 K, x1 = 0.5995",784.63 ± 0.24 kg/m3
same,mass density,"303.15 K, x1 = 0.7293",803.32 ± 0.24 kg/m3
same,mass density,"303.15 K, x1 = 0.7829",811.82 ± 0.24 kg/m3
same,mass density,"303.15 K, x1 = 0.8993",832.18 ± 0.24 kg/m3
same,mass density,"303.15 K, x1 = 0.9499",841.92 ± 0.24 kg/m3
